{"source": "PubChem BioAssay (NCI)", "test_in_all_cases": "NCI anticancer screen, dose series, 48 h", "key": {"HOP-62 NSCLC": {"tested_on": "HOP-62 NSCLC"}, "UACC-62 melanoma": {"tested_on": "UACC-62 melanoma"}, "TK-10 renal": {"tested_on": "TK-10 renal"}, "EKVX NSCLC": {"tested_on": "EKVX NSCLC"}, "NCI-H522 lung": {"tested_on": "NCI-H522 lung"}, "SF-268 CNS": {"tested_on": "SF-268 CNS"}, "SF-295 CNS": {"tested_on": "SF-295 CNS"}, "K-562 leukemia": {"tested_on": "K-562 leukemia"}, "A498 renal": {"tested_on": "A498 renal"}, "UO-31 renal": {"tested_on": "UO-31 renal"}}, "note": "“And” between values parts separate entries of the source, which are not always exact repeats. Identical values can stand only once.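 96-well plates; 48 h exposure; 5 concentrations. Endpoints by linear interpolation between flanking doses. Not reached: highest tested concentration assigned. Abbreviation: GI50, concentration required for 50% inhibition of growth. Definition used: TGI = concentration required for complete inhibition of growth.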"}
{"smiles": "O=S1CSSC1", "values": [{"measurement": "TGI", "setting": "HOP-62 NSCLC", "result": 98.6, "unit": "µM"}, {"measurement": "TGI", "setting": "UACC-62 melanoma", "result": 25.8, "unit": "µM"}, {"measurement": "TGI", "setting": "TK-10 renal", "result": "> 100", "unit": "µM"}, {"measurement": "TGI", "setting": "EKVX NSCLC", "result": 77.8, "unit": "µM"}, {"measurement": "TGI", "setting": "NCI-H522 lung", "result": 25.9, "unit": "µM"}, {"measurement": "TGI", "setting": "SF-268 CNS", "result": 58.4, "unit": "µM"}, {"measurement": "TGI", "setting": "SF-295 CNS", "result": 65.1, "unit": "µM"}, {"measurement": "TGI", "setting": "K-562 leukemia", "result": 80.7, "unit": "µM"}, {"measurement": "TGI", "setting": "A498 renal", "result": "> 100", "unit": "µM"}, {"measurement": "TGI", "setting": "UO-31 renal", "result": 34.7, "unit": "µM"}]}
{"smiles": "COc1cc(CNc2nc3ccc(C(F)(F)F)cc3nc2-c2ccccc2)cc(OC)c1OC", "values": [{"measurement": "TGI", "setting": "HOP-62 NSCLC", "result": "> 100", "unit": "µM"}, {"measurement": "TGI", "setting": "UACC-62 melanoma", "result": "> 100", "unit": "µM"}, {"measurement": "TGI", "setting": "TK-10 renal", "result": "> 100", "unit": "µM"}, {"measurement": "TGI", "setting": "EKVX NSCLC", "result": 59.6, "unit": "µM"}, {"measurement": "TGI", "setting": "NCI-H522 lung", "result": 55.7, "unit": "µM"}, {"measurement": "TGI", "setting": "SF-268 CNS", "result": "> 100", "unit": "µM"}, {"measurement": "TGI", "setting": "SF-295 CNS", "result": "> 100", "unit": "µM"}, {"measurement": "TGI", "setting": "K-562 leukemia", "result": "> 100", "unit": "µM"}, {"measurement": "TGI", "setting": "A498 renal", "result": "> 100", "unit": "µM"}, {"measurement": "TGI", "setting": "UO-31 renal", "result": 55.6, "unit": "µM"}]}
{"smiles": "CCOc1ccc(Nc2c3ccccc3nc3ccccc23)cc1", "values": [{"measurement": "GI50", "setting": "HOP-62 NSCLC", "result": "0.416 µM and 0.672 µM"}, {"measurement": "TGI", "setting": "HOP-62 NSCLC", "result": "5.25 µM and 13.1 µM"}, {"measurement": "GI50", "setting": "UACC-62 melanoma", "result": "0.506 µM and 0.216 µM"}, {"measurement": "TGI", "setting": "UACC-62 melanoma", "result": "4.25 µM and 1.3 µM"}, {"measurement": "GI50", "setting": "TK-10 renal", "result": "0.797 µM and 0.654 µM"}, {"measurement": "TGI", "setting": "TK-10 renal", "result": "4.27 µM and 12.3 µM"}, {"measurement": "GI50", "setting": "EKVX NSCLC", "result": "0.863 µM and 0.613 µM"}, {"measurement": "TGI", "setting": "EKVX NSCLC", "result": "7.56 µM and 6.1 µM"}, {"measurement": "GI50", "setting": "NCI-H522 lung", "result": "0.214 µM and 0.319 µM"}, {"measurement": "TGI", "setting": "NCI-H522 lung", "result": "1.44 µM and 11.8 µM"}, {"measurement": "GI50", "setting": "SF-268 CNS", "result": "0.709 µM and 0.526 µM"}, {"measurement": "TGI", "setting": "SF-268 CNS", "result": "19.1 µM and 13.9 µM"}, {"measurement": "GI50", "setting": "SF-295 CNS", "result": "0.228 µM and 0.219 µM"}, {"measurement": "TGI", "setting": "SF-295 CNS", "result": "1.11 µM and 0.956 µM"}, {"measurement": "GI50", "setting": "K-562 leukemia", "result": "0.316 µM and 0.0616 µM"}, {"measurement": "GI50", "setting": "A498 renal", "result": "0.307 µM and 0.332 µM"}, {"measurement": "TGI", "setting": "A498 renal", "result": "6.81 µM and 3.02 µM"}, {"measurement": "GI50", "setting": "UO-31 renal", "result": "0.677 µM and 0.356 µM"}, {"measurement": "TGI", "setting": "UO-31 renal", "result": "3.99 µM and 3.74 µM"}]}
{"smiles": "O=[N+]([O-])c1ccc(-c2cc3c(Nc4ccc(Cl)c(C(F)(F)F)c4)ncnc3s2)cc1", "values": [{"measurement": "GI50", "setting": "HOP-62 NSCLC", "result": 3.13, "unit": "µM"}, {"measurement": "TGI", "setting": "HOP-62 NSCLC", "result": "> 100", "unit": "µM"}, {"measurement": "GI50", "setting": "UACC-62 melanoma", "result": 1.63, "unit": "µM"}, {"measurement": "TGI", "setting": "UACC-62 melanoma", "result": "> 100", "unit": "µM"}, {"measurement": "GI50", "setting": "TK-10 renal", "result": 3.56, "unit": "µM"}, {"measurement": "TGI", "setting": "TK-10 renal", "result": "> 100", "unit": "µM"}, {"measurement": "GI50", "setting": "EKVX NSCLC", "result": 2.61, "unit": "µM"}, {"measurement": "TGI", "setting": "EKVX NSCLC", "result": "> 100", "unit": "µM"}, {"measurement": "GI50", "setting": "NCI-H522 lung", "result": 0.566, "unit": "µM"}, {"measurement": "TGI", "setting": "NCI-H522 lung", "result": 5.13, "unit": "µM"}, {"measurement": "GI50", "setting": "SF-268 CNS", "result": 1.34, "unit": "µM"}, {"measurement": "TGI", "setting": "SF-268 CNS", "result": "> 100", "unit": "µM"}, {"measurement": "GI50", "setting": "SF-295 CNS", "result": 1.21, "unit": "µM"}, {"measurement": "TGI", "setting": "SF-295 CNS", "result": 6.75, "unit": "µM"}, {"measurement": "GI50", "setting": "K-562 leukemia", "result": 0.872, "unit": "µM"}, {"measurement": "TGI", "setting": "K-562 leukemia", "result": "> 100", "unit": "µM"}, {"measurement": "GI50", "setting": "A498 renal", "result": 0.706, "unit": "µM"}, {"measurement": "TGI", "setting": "A498 renal", "result": 3.42, "unit": "µM"}, {"measurement": "GI50", "setting": "UO-31 renal", "result": 1.13, "unit": "µM"}, {"measurement": "TGI", "setting": "UO-31 renal", "result": "> 26.7", "unit": "µM"}]}
{"smiles": "O=C1c2ccccc2-c2c1c1c(NCCCO)nc3ccccc3c1n2Cc1ccccc1", "values": [{"measurement": "GI50", "setting": "HOP-62 NSCLC", "result": 19.3, "unit": "µM"}, {"measurement": "TGI", "setting": "HOP-62 NSCLC", "result": 35.7, "unit": "µM"}, {"measurement": "GI50", "setting": "UACC-62 melanoma", "result": 18.7, "unit": "µM"}, {"measurement": "TGI", "setting": "UACC-62 melanoma", "result": 36.5, "unit": "µM"}, {"measurement": "GI50", "setting": "TK-10 renal", "result": 23, "unit": "µM"}, {"measurement": "TGI", "setting": "TK-10 renal", "result": 41.1, "unit": "µM"}, {"measurement": "GI50", "setting": "EKVX NSCLC", "result": 27.5, "unit": "µM"}, {"measurement": "TGI", "setting": "EKVX NSCLC", "result": 64.4, "unit": "µM"}, {"measurement": "GI50", "setting": "NCI-H522 lung", "result": 26, "unit": "µM"}, {"measurement": "TGI", "setting": "NCI-H522 lung", "result": 96.3, "unit": "µM"}, {"measurement": "GI50", "setting": "SF-268 CNS", "result": 22.7, "unit": "µM"}, {"measurement": "TGI", "setting": "SF-268 CNS", "result": 51.9, "unit": "µM"}, {"measurement": "GI50", "setting": "SF-295 CNS", "result": 22.3, "unit": "µM"}, {"measurement": "TGI", "setting": "SF-295 CNS", "result": 45.3, "unit": "µM"}, {"measurement": "GI50", "setting": "K-562 leukemia", "result": 15.5, "unit": "µM"}, {"measurement": "TGI", "setting": "K-562 leukemia", "result": 28.8, "unit": "µM"}, {"measurement": "GI50", "setting": "A498 renal", "result": 21.6, "unit": "µM"}, {"measurement": "TGI", "setting": "A498 renal", "result": 48.6, "unit": "µM"}, {"measurement": "GI50", "setting": "UO-31 renal", "result": 24.6, "unit": "µM"}, {"measurement": "TGI", "setting": "UO-31 renal", "result": 73.7, "unit": "µM"}]}
